This note sets out measurements from paper PMC10510381, “Alkyne as a Latent Warhead to Covalently Target SARS-CoV-2 Main Protease” (Journal of Medicinal Chemistry, 2023).

Data set [1] addresses SARS-CoV-2 M^pro (Severe acute respiratory syndrome coronavirus 2, UniProt P0DTD1). Nature of the data set: biochemical. To be noted: for inhibition against M^pro: up to 80 μM.
In data set [2] the target is recombinant M^pro (Severe acute respiratory syndrome coronavirus 2, UniProt P0DTD1). The class given is binding.
In data set [3] the test system is HEK293T proteome. Put plainly: Proteomic labeling of parental HEK293T cells (in-gel fluorescence). The class given is cell-based, human.
The target of data set [4] is M^pro expressed in HEK293T cells (Severe acute respiratory syndrome coronavirus 2, UniProt P0DTD1). It is filed as cell-based. To be noted: HEK293T transiently transfected with M^pro.
Data set [5] deals with HeLa proteome. It is filed as cell-based, human.
Data set [6] has as its system Hela-ACE2 cells.
Data set [7] has as its system SARS-CoV-2. It is filed as cell-based.
Setting [8] is: 15-min treatment of M^pro (0.5 μM), FRET substrate 20 μM, both duplicate values given, read-out: IC50.
[9] abbreviates: 15-min pre-incubation, read-out: IC50 (average of duplicate).

Values joined by “and” are separate entries in the source; they are usually repeats but may differ in a detail not shown here. Equal values may be shown once. “Also recorded” adds a separate entry of the source. Read-outs that look alike come from different tables or passages of the source. Residues, ends and D or L forms follow the SMILES beside them. *: point of attachment. Cbz = O=C(OCc1ccccc1)* Bounds are passed on as bounds.

Broadly, the IC50 is the concentration needed to halve the response being measured.

On to `CC(C)C[C@H](NC(=O)OCc1ccccc1)C(=O)N[C@H](/C=C/C(=O)OCc1ccccc1)CCC(N)=O` [Compound 1a, O=C(N[C@@H](CCC(N)=O)/C=C/C(OCC1=CC=CC=C1)=O)[C@H](CC(C)C)NC(OCC2=CC=CC=C2)=O], for which the IC50 in data set [1] (setting [8]) was 2.5 µM and 3.9 µM.

With `C#C[C@H](CCC(N)=O)NC(=O)[C@H](CC(C)C)NC(=O)OCc1ccccc1` [Compound 1d, O=C(N[C@@H](CCC(N)=O)C#C)[C@H](CC(C)C)NC(OCC1=CC=CC=C1)=O], the IC50 in data set [1] (setting [8]) was 35 µM and 60 µM.

As to `C#CC[C@H](NC(=O)C(F)(F)F)C(=O)N1C[C@H]2[C@@H]([C@H]1C(=O)N[C@H](C#C)C[C@@H]1CCNC1=O)C2(C)C` [Alk-4d, O=C1NCC[C@H]1C[C@@H](C#C)NC([C@H]2N(C([C@@H](NC(C(F)(F)F)=O)CC#C)=O)C[C@H]3[C@@H]2C3(C)C)=O], in data set [2] (1 h treatment), the “probe concentration for efficient labeling of M^pro” value is “above 1 μM” and the “probe concentration reaching saturation of M^pro labeling” value was found to be 3 µM. The “proteome labeling, HEK293T cells” value in data set [3] (1 hour, up to 30 μM) is “little labeling; also recorded: did not label any proteins”. Also, the “proteome labeling, HEK293T cells” value in data set [3] (5 h, all tested concentrations) was “little proteome labeling”. Moreover, in data set [4], the “labeling of M^pro in live cells” value was “dose-dependent labeling”. Further, in data set [5], the “proteome labeling, HeLa cells” value is on record as “little labeling”.

Regarding `C#CC[C@H](NC(=O)C(F)(F)F)C(=O)N1C[C@H]2[C@@H]([C@H]1C(=O)N[C@H](C#CC(F)(F)F)C[C@@H]1CCNC1=O)C2(C)C` [Alk-4i, O=C1NCC[C@H]1C[C@@H](C#CC(F)(F)F)NC([C@H]2N(C([C@@H](NC(C(F)(F)F)=O)CC#C)=O)C[C@H]3[C@@H]2C3(C)C)=O], the “lowest concentration tested, giving intense labeling of M^pro” value in data set [2] amounted to 300 nM. For the same compound, the “incubation time to label M^pro near saturation” value in data set [2] (time-course) turned out to be 5 min. Besides, the “proteome labeling, HEK293T cells” value in data set [3] (5 h, 10 μM) is “significant labeling”.

On to `CC(C)C[C@H](NC(=O)OCc1ccccc1)C(=O)N[C@H](/C=C/S(C)(=O)=O)CCC(N)=O` [Compound 1b, O=C(N[C@@H](CCC(N)=O)/C=C/S(C)(=O)=O)[C@H](CC(C)C)NC(OCC1=CC=CC=C1)=O], for which the IC50 in data set [1] (setting [8]) is 12 µM and 18 µM.

Turning to `CC(C)C[C@H](NC(=O)OCc1ccccc1)C(=O)N[C@@H](CCC(N)=O)C(=O)C(=O)NCc1ccccc1` [Compound 1f, O=C(N[C@@H](CCC(N)=O)C(C(NCC1=CC=CC=C1)=O)=O)[C@H](CC(C)C)NC(OCC2=CC=CC=C2)=O], the half-maximal inhibitory concentration (IC50) in data set [1] (setting [8]) was more than 80 µM. Besides, the “inhibition against M^pro” value in data set [1] was “failed to cause significant inhibition”.

For `C#C[C@H](CCC(N)=O)NC(=O)[C@H](CC(C)C)NC(=O)c1cc2c(OC)cccc2[nH]1` [Compound 2d, O=C(N[C@@H](CCC(N)=O)C#C)[C@H](CC(C)C)NC(C1=CC2=C(C=CC=C2OC)N1)=O], the IC50 was determined as 22 µM in data set [1] (15-min pre-incubation, both duplicate values given, read-out: IC50 uM (15-min pre-incubation)) and 22 µM in data set [1] (setting [8]).

With `CC(C)(C)[C@H](NC(=O)C(F)(F)F)C(=O)N1C[C@H]2[C@@H]([C@H]1C(=O)N[C@H](C#N)C[C@@H]1CCNC1=O)C2(C)C` [Compound 4g, nirmatrelvir, reference compound], the cytotoxicity result in data set [6] (up to the highest concentration tested, 10 μM, 20 h) is recorded as “no notable cytotoxicity”.

Turning to `CC(C)(C)[C@H](NC(=O)C(F)(F)F)C(=O)N1C[C@H]2[C@@H]([C@H]1C(=O)N[C@@H](C[C@@H]1CCNC1=O)C(N)=O)C2(C)C` [Compound 4h, O=C1NCC[C@H]1C[C@@H](C(N)=O)NC([C@H]2N(C([C@@H](NC(C(F)(F)F)=O)C(C)(C)C)=O)C[C@H]3[C@@H]2C3(C)C)=O], the IC50 in data set [1] (setting [8]) was more than 80 µM.

`CC(C)(C)[C@H](NC(=O)C(F)(F)F)C(=O)N1C[C@H]2[C@@H]([C@H]1C(=O)N[C@H](C=O)C[C@@H]1CCNC1=O)C2(C)C` [Compound 4e, O=C1NCC[C@H]1C[C@@H](C([H])=O)NC([C@H]2N(C([C@@H](NC(C(F)(F)F)=O)C(C)(C)C)=O)C[C@H]3[C@@H]2C3(C)C)=O]: the IC50 in data set [1] (setting [8]) was 0.29 µM and 0.3 µM.

Consider `CC(C)(C)[C@H](NC(=O)C(F)(F)F)C(=O)N1C[C@H]2[C@@H]([C@H]1C(=O)N[C@H](C#CC(F)(F)F)C[C@@H]1CCNC1=O)C2(C)C` [Compound 4i, O=C1NCC[C@H]1C[C@@H](C#CC(F)(F)F)NC([C@H]2N(C([C@@H](NC(C(F)(F)F)=O)C(C)(C)C)=O)C[C@H]3[C@@H]2C3(C)C)=O], for which, in data set [2] (competition with 10 μM Alk-4d), the “concentration sufficient to abolish labeling of M^pro” value worked out at 1 µM. In data set [7], the antiviral activity entry is given as “strong, dose-dependent antiviral activity”. In data set [7] (sub-micromolar concentrations, HeLa-ACE2, 24 h), the anti-COVID activity result is reported as “significant anti-COVID activity”. For the same compound, the cytotoxicity entry in data set [6] is reported as “no notable cytotoxicity”.

For the compound `CC(C)C[C@H](NC(=O)OCc1ccccc1)C(=O)N[C@H](C#N)CCC(N)=O` [Compound 1g, O=C(N[C@@H](CCC(N)=O)C#N)[C@H](CC(C)C)NC(OCC1=CC=CC=C1)=O], in data set [1] (setting [8]), the 50% inhibitory concentration (IC50) was more than 80 µM. The “inhibition against M^pro” value in data set [1] is “failed to cause significant inhibition”.

As to `CNS(=O)(=O)/C=C/[C@H](CCC(N)=O)NC(=O)[C@H](CC(C)C)NC(=O)OCc1ccccc1` [Compound 1c, O=C(N[C@@H](CCC(N)=O)/C=C/S(=O)(NC)=O)[C@H](CC(C)C)NC(OCC1=CC=CC=C1)=O], the IC50 in data set [1] (setting [9]) is 47 µM; in data set [1] (setting [8]) it was 39 µM and 55 µM.

For `COc1cccc2[nH]c(C(=O)N[C@@H](CC(C)C)C(=O)N[C@H](C#N)CCC(N)=O)cc12` [Compound 2g, O=C(N[C@@H](CCC(N)=O)C#N)[C@H](CC(C)C)NC(C1=CC2=C(C=CC=C2OC)N1)=O], the half-maximal inhibitory concentration (IC50) in data set [1] (setting [8]) was 29 µM and 30 µM.

For `C#C[C@H](C[C@@H]1CCNC1=O)NC(=O)[C@H](CC(C)C)NC(=O)c1cc2c(OC)cccc2[nH]1` [Compound 3d, O=C(N[C@@H](C[C@H]1C(NCC1)=O)C#C)[C@H](CC(C)C)NC(C2=CC3=C(C=CC=C3OC)N2)=O], the 50% inhibitory concentration (IC50) was approximately 7 µM in data set [1] (setting [9]); 10 µM and 4.4 µM in data set [1] (setting [8]).

Turning to `CC(C)C[C@H](NC(=O)OCc1ccccc1)C(=O)N[C@H](C=O)CCC(N)=O` [Compound 1e, O=C(N[C@@H](CCC(N)=O)C([H])=O)[C@H](CC(C)C)NC(OCC1=CC=CC=C1)=O] (Cbz-Leu-Gln-aldehyde), the IC50 in data set [1] (setting [8]) was more than 80 µM. Moreover, the “inhibition against M^pro” value in data set [1] is given as “failed to cause significant inhibition”.
